Entries after “also recorded” stand apart in the source; their conditions may differ. Read-outs that look alike come from different tables or passages of the source. Where no end group is shown, it is not given here.

Here are results for twelve substances from patent publication US9359422B2, “Single chain relaxin polypeptides” (The University of Queensland, priority 2010, dated 2016).

Series [1] deals with T1, human RXFP3 (Homo sapiens, UniProt Q9NSD7).
T1 construct: expressed in transfected cells
T1 sequence (Q9NSD7 1-469): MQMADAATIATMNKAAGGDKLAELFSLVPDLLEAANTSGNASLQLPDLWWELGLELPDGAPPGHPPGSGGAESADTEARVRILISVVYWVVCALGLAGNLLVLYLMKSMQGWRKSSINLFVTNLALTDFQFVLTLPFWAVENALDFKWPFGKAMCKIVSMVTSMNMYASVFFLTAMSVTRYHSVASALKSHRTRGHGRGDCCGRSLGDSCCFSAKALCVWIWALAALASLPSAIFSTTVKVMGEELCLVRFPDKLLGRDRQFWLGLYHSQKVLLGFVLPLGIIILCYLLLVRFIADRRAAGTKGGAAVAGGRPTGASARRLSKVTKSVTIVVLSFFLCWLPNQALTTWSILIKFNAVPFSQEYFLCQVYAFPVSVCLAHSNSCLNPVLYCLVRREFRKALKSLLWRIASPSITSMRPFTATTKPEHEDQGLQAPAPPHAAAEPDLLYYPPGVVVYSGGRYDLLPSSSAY
Description: RXFP3 competition binding assay with Eu-DTPA-R3/I5. The following applies: for binding affinity for RXFP3 (in words): RXFP3-expressing cells, Eu-labelled H3/INSL5 chimeric polypeptide.

Series [2] has as its target T1, human RXFP3. As to the kind of experiment: cAMP activity assay (pCRE β-galactosidase reporter, forskolin-induced) in CHO cells transfected with RXFP3. The format is cell-based. The following applies: for agonist activity at RXFP3 (inhibition of cAMP activity): RXFP3-expressing cells, 5 μM forskolin; for antagonist activity at RXFP3 (rescue of cAMP levels): in the presence of 10 nM H3 relaxin. The procedure: For activity determination, a cAMP activity assay was used. CHO cells were cultured in a 1:1 mixture of Dulbecco's modified Eagle's medium and HAMNS-F12 medium supplemented with 10% fetal bovine serum, 1% L-glutamine and 1% penicillin/strepicillin and cultivated in a humidified chamber with 5% CO2 at 37.8° C. 20 000 cells per well were seeded into a pre-coated poly-L lysine 96-wells plate. Cells were incubated over night before being transfected with the mammalian expression vector pcDNA3.1(+)zeo (UMR cDAN Resource Center) carrying human RXFP3 together with a pCRE β-galactosidase reporter plasmid using TransIT-CHO, OptiMEM and CHO-MOJO reagents. Cells were then incubated over night in a humidified chamber with 5% CO2 at 37.8° C. before cAMP assays were performed. […] In brief, the cells were incubated with the peptide for 6 h in a humidified chamber before the media was aspirated off and the cells were frozen at −80° C. To develop the results, the cells were lysed by addition of 25 μl buffer A (5 ml 10 mM sodium phosphate buffer, pH 8.0, 1 ml 0.2 mM MgSO4 and 50 μl 0.01 mM MnCl2 in 44 ml H2O) to each well and incubated on a shaker for 10 min at room temperature before addition of 100 μl Buffer B (5 ml 100 mM sodium phosphate buffer, pH 8.0, 1 ml 2 mM MgSO4, 50 μl 0.1 mM MnCl2, 2.5 ml 0.5% Triton X-100 and 0.16 ml 40 mM β-mercaptoethanol in 41.3 ml H2O) followed by a 10 min incubation. The substrate, chlorophenol red-β-D-galactopyranoside (CPRG), was then added to each well and the reaction was left at room temperature until a absorbance of <1 AU at 570 nm was reached.

Series [3] addresses T2, human RXFP1 (Homo sapiens, UniProt Q9HBX9).
T2 construct: expressed in transfected cells; host or cells: HEK-293T
T2 sequence (Q9HBX9 1-757): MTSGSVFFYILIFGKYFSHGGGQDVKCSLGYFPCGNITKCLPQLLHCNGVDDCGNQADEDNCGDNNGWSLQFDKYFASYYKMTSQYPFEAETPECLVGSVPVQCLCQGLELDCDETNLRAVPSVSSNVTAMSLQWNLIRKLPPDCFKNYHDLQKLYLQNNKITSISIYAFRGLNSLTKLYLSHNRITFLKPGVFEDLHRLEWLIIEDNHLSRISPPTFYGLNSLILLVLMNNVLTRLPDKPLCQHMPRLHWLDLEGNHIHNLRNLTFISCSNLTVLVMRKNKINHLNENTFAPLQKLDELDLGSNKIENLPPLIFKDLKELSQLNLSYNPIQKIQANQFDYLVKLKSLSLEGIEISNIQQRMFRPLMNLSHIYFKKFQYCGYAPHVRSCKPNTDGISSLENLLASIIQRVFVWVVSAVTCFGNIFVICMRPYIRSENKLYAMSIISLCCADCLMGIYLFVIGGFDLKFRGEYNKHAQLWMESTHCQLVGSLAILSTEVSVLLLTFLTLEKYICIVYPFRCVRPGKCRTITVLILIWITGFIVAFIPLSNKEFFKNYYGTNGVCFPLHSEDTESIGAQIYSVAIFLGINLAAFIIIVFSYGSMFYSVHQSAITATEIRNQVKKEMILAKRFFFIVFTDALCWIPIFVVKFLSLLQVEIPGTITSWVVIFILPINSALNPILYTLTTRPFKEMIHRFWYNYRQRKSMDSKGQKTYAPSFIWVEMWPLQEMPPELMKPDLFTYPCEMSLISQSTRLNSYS
As to the kind of experiment: RXFP1 competition binding assay with Eu-DTPA-H2 relaxin. The note with it: HEK-293T cells transfected with RXFP1, Eu-DTPA-H2 relaxin. The protocol: Binding assays were carried out as follows. HEK-293T cells stably transfected with human RXFP3 were plated out onto pre-coated poly-L-lysine 96-well viewplates with a density of 50 000 cells per well. Media was aspirated off and the cells were washed with PBS before different concentrations of peptide diluted in binding buffer (100 mM HEPES, pH 7.6, 5 mM KCl, 1.3 mM MgSO4, 1.5 mM NaOAc, 1 mM EDTA and 10 mM glucose) and 300 μM of Eu-DTPA-R3/15 was added to each well. The cells were incubated at room temperature for 60 min before the peptide solution was aspirated off and the cells washed with PBS. DELFIA enhancement solution was then added and the cells incubated for a further 30-60 min at room temperature, after which the fluorescence was measured using a time resolved fluorometer with excitation at 340 nm an emission at 614 nm.
Similarly, the B1-22R single chain polypeptide was tested for its ability to activate RXFP1 or antagonise the action of H2 relaxin at this receptor. To do so, binding assays were carried out essentially as described above in Example 2 except using HEK-293T cells transfected with RXFP1 and 300 μM of Eu-DTPA-H2 relaxin.

Series [4] has as its system alcohol-preferring (iP) rats. Description: Operant alcohol self-administration in alcohol-preferring (iP) rats. The format is in vivo, rat. The following applies: 10% ethanol, FR3, 3 μg, 10 μg or 30 μg via lateral cerebral ventricle cannula, vs normal and vehicle responding. The protocol: Rats were trained to stably administer 10% ethanol during daily operant session (n=18 rats) and then implanted with guide cannulae aimed at the lateral cerebral ventricle. Following a 7 day recovery period, the rats were re-stabilised on alcohol self-administration under fixed-ratio 3 (FR3) conditions and the effect of B1-22R was examined.
Rats were administered 3 μg, 10 μg or 30 μg of the B1-22R antagonist. […] The effect observed was dose-dependent.

Series [5] deals with T3, RXFP4 (Homo sapiens, UniProt Q8TDU9).
T3 construct: expressed in transfected cells; host or cells: RXFP4-expressing cells
T3 sequence (Q8TDU9 whole entry, species assumed): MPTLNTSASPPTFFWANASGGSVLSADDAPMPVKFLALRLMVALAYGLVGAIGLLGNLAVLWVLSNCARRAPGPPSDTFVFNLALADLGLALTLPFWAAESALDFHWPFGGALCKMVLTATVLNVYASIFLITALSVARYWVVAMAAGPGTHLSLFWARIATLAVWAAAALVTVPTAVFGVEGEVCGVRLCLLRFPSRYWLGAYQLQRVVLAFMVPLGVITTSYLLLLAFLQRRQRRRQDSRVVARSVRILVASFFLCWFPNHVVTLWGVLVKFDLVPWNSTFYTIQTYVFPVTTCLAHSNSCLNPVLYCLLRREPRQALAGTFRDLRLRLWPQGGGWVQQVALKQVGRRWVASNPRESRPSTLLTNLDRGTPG
As to the kind of experiment: cAMP activity assay in RXFP4-expressing cells. The format is cell-based.

Series [6] has as its system rats. The format is in vivo, rat. The note with it: 10 μg, 0 to 45 minutes post administration, vs vehicle. From the text:
The inventors also carried out experiments to determine if the effects may be due to disruption in locomotor skills.

Where [7] appears, read: HEK-293T cells stably transfected with human RXFP3, Eu-DTPA-R3/I5 tracer, n = 3, read-out: pIC50 (n = 3), binding affinities of single chain relaxin polypeptides for RXFP3 (converted).
The mark [8] stands for this setting: HEK-293T cells stably transfected with human RXFP3, Eu-DTPA-R3/I5 tracer, n = 3.

As to “H-AAPYGVRLSGREFIRAVIFTSR-NH2 [H3 B2-22R]”, the IC50 in series [1] (setting [7]) was 87.1 nM. In addition, the “binding affinity for RXFP3 (in words)” value in series [1] was “binding affinities for RXFP3 similar to that of B1-22R”. Moreover, in series [2], the “agonist activity at RXFP3 (inhibition of cAMP activity)” value is reported as “failed to show any agonist activity”.

In the case of H-APYGVRLSGREFIRAVIFTSR-NH2 [H3 B3-22R], the IC50 in series [1] (setting [7]) was 195 nM. Also, the “binding affinity for RXFP3 (in words)” value in series [1] is on record as “binding affinities for RXFP3 similar to that of B1-22R”. Further, the “agonist activity at RXFP3 (inhibition of cAMP activity)” value in series [2] is on record as “failed to show any agonist activity”.

H-GVRLSGREFIRAVIFTSR-NH2 [H3 B6-22R]: in series [1] (setting [7]), the IC50 is 468 nM. In addition, the “binding affinity for RXFP3 (in words)” value in series [1] is reported as “binding affinities for RXFP3 similar to that of B1-22R”. In series [2], the “agonist activity at RXFP3 (inhibition of cAMP activity)” value was “failed to show any agonist activity”.

Consider H-PYGVRLSGREFIRAVIFTSR-NH2 [H3 B4-22R], for which the IC50 in series [1] (setting [7]) is 219 nM. Also, in series [1], the “binding affinity for RXFP3 (in words)” value is on record as “binding affinities for RXFP3 similar to that of B1-22R”. Also, the “agonist activity at RXFP3 (inhibition of cAMP activity)” value in series [2] is given as “failed to show any agonist activity”.

“H-RAAPYGVRLAGREFIRAVIFTAR-NH2 [H3 B1-22R C10/22A]”: the IC50 in series [1] (setting [7]) is 148 nM. The “binding affinity for RXFP3 (in words)” value in series [1] is recorded as “binding affinities for RXFP3 similar to that of B1-22R”. For the same substance, in series [2], the “agonist activity at RXFP3 (inhibition of cAMP activity)” value was “failed to show any agonist activity” and the “antagonist activity at RXFP3 (rescue of cAMP levels)” value (“antagonist activity at RXFP3” for short) was “lowest antagonist activity”.

Take “H-RAAPYGVRLSGREFIRAVIFTSGGSRW-OH [H3 B-chain C10/22S, reference compound]”: the “binding affinity for RXFP3 (in words)” value in series [1] is listed as “significantly less efficient in binding this receptor”.

Consider “H-RAAPYGVRLSGREFIRAVIFTSR-NH2 [H3 B1-22R]”, for which the IC50 in series [1] was 17.8 nM. Moreover, in series [2], the “agonist activity at RXFP3 (inhibition of cAMP activity)” value was “no such inhibition” and the “antagonist activity at RXFP3” value was “rescued cAMP levels towards 100%”. Further, the “antagonist activity at RXFP3” value in series [2] (listed as H1-B22R) is listed as “greatest antagonist activity”. Further, the “affinity for the RXFP1 receptor” value in series [3] is “very poor affinity”. For the same substance, the ethanol lever presses result in series [4] is “significant decrease in ethanol lever presses; also recorded: dose-dependent”. In addition, the “agonist activity at RXFP4” value in series [5] (RXFP4-expressing cells, cAMP) is “no agonist activity”. Further, the “antagonist activity at RXFP4” value in series [5] (block of INSL5 or H3 relaxin stimulated RXFP4 activation) is reported as “fails to show any observable antagonist activity”. Further, the “locomotor skills (floor plane moves or floor plane distance)” value in series [6] is “No significant difference”.

In the case of “H-RAAPYGVRLSGREFIRAVIFTSR-OH [H3 B1-22R Acid]”, in series [1] (setting [7]), the IC50 is 347 nM. Also, the “binding affinity for RXFP3 (in words)” value in series [1] is “binding affinities for RXFP3 similar to that of B1-22R”. Besides, in series [2], the “agonist activity at RXFP3 (inhibition of cAMP activity)” value is “failed to show any agonist activity”.

H-YGVRLSGREFIRAVIFTSR-NH2 [H3 B5-22R]: in series [1] (setting [7]), the IC50 is 427 nM. In addition, the “binding affinity for RXFP3 (in words)” value in series [1] is “binding affinities for RXFP3 similar to that of B1-22R”. In series [2], the “agonist activity at RXFP3 (inhibition of cAMP activity)” value was “failed to show any agonist activity”.

Consider RAAPYGVRLSGREFIRAVIFTS [H3 B1-22], for which, in series [1] (setting [8]), the “pIC50 (n = 3), binding affinities of single chain relaxin polypeptides for RXFP3” value is on record as “No activity”. The “binding affinity for RXFP3 (in words)” value in series [1] is reported as “significantly less efficient in binding this receptor”.

“RAAPYGVRLSGREFIRAVIFTSGGSRW-OH [H3 B-chain C10/22S, reference compound]”: in series [1] (setting [7]), the IC50 was 2510 nM.

For the substance VRLSGREFIRAVIFTSR [H3 B7-22R], in series [1] (setting [8]), the “pIC50 (n = 3), binding affinities of single chain relaxin polypeptides for RXFP3” value was “No activity”. The “binding affinity for RXFP3 (in words)” value in series [1] is recorded as “failed to bind RXFP3 at any detectable level”. Further, the “agonist activity at RXFP3 (inhibition of cAMP activity)” value in series [2] was “failed to show any agonist activity”.
